Assay results: ChEMBL document CHEMBL1136134, “Novel coumarin derivatives of heterocyclic compounds as lipid-lowering agents” (2003)
Activity calls are given as the source filed them. The rule behind the calls is not given here.

How the values were obtained:
[1] = system: Mus musculus; assay: Plasma triglyceride lowering activity in swiss albino mice was determined after 3 mg/kg compound administered for 6 days; type: functional
[2] = system: Mus musculus; assay: Plasma triglyceride lowering activity in swiss albino mice was determined after 30 mg/kg compound administered for 6 days; type: functional
[3] = system: Mus musculus; assay: Plasma triglyceride lowering activity in swiss albino mice was determined after 3 mg/kg compound administered for 6 days; Not effective; type: functional, organism-based; set-up: dose 3 mg/kg

## CCOC(Cc1ccc(OCCN2c3ccccc3Oc3ccccc32)cc1)C(=O)O (configuration not stated)
[1]
  Activity: 47%

## CCOc1cc2ccc(OCCn3c(CC)nc(C)cc3=O)cc2oc1=O
[1]
  Activity: 26%

## CCOc1cc2ccc(OCc3ccccc3F)cc2oc1=O
[1]
  Activity: 25%

## CC(C)OC(=O)C(C)(C)Oc1ccc(C(=O)c2ccc(Cl)cc2)cc1 [FENOFIBRATE]
[2]
  Activity: 36%

## CCOc1cc2ccc(OCCN3c4ccccc4Oc4ccccc43)cc2oc1=O
[3]
  Activity: inactive

## Cc1oc(-c2ccccc2)nc1CCOc1ccc2cc(C(=O)O)c(=O)oc2c1
[1]
  Activity: 32%

## CCOc1cc2ccc(OCCN(C)c3nc4ccccc4o3)cc2oc1=O
[3]
  Activity: inactive

## CCOc1cc2ccc(OC(C)(C)C(=O)O)cc2oc1=O
[1]
  Activity: 16%

## CCOC(=O)c1cc2ccc(OCCc3nc(-c4ccccc4)oc3C)cc2oc1=O
[1]
  Activity: 2%

## CCOc1cc2ccc(OCCn3ncc4cc(C)ccc4c3=O)cc2oc1=O
[3]
  Activity: inactive

## CC(=O)Nc1cc2ccc(OCCc3nc(-c4ccccc4)oc3C)cc2oc1=O
[1]
  Activity: 2%

## O=C(O)c1cc2ccc(OCCn3ncc4ccccc4c3=O)cc2oc1=O
[3]
  Activity: inactive

## CCOc1cc2ccc(OCCn3ncc4ccccc4c3=O)cc2oc1=O
[1]
  Activity: 45%

## CC(=O)Nc1cc2ccc(OCCN(C)c3nc4ccccc4o3)cc2oc1=O
[3]
  Activity: inactive

## CCOc1cc2ccc(OCCn3ccc4ccccc43)cc2oc1=O
[1]
  Activity: 27%

## CCOc1cc2ccc(OCCn3c(CC)nc4ccccc4c3=O)cc2oc1=O
[3]
  Activity: inactive

## CCOc1cc2ccc(OCCc3nc(-c4ccccc4)oc3C)cc2oc1=O
[1]
  Activity: 31%
